From US6723716B1, “7-acylamino-3-heteroarylthio-3-cephem carboxylic acid antibiotics and prodrugs thereof” (Essential Therapeutics, Inc., priority 1999, dated 2004) come the findings set out here.

Data set [1] concerns S. aureus Col8A (Meth^S)(lac^−). The experiment in a line: Broth microdilution MIC (NCCLS). Type of data set: cell-based. The following applies: Staphylococcus aureus. How it is done:
(§1) Compounds were evaluated for antimicrobial activity against a panel of bacterial strains using a broth microdilution assay performed as recommended by the NCCLS (1). The minimum inhibitory concentration (MIC) was defined as the lowest concentration of drug which prevented the growth of the bacteria.
(§2) For this primary panel, the assay was performed in Mueller-Hinton Broth (MHB) with a final bacterial inoculum of 5×10^5 CFU/mL (from an early-log phase culture) and a final volume of 100 μL. Control drugs, including imipenem, vancomycin, Penicillin G, dicloxacillin (vs. MSSA ATCC29213 only), and new compounds were prepared at a concentration equivalent to 2-fold the desired final concentration. Dilution of compounds were prepared directly in the plates by serial 2-fold dilution using a multichannel pipette. Positive and negative growth control were included in each plate.
(§3) The bacterial inocula were prepared as follows. For each strain one isolated colony was used to inoculate a volume of 8 mL of Mueller-Hinton broth and these cultures were incubated overnight (20 h) at 35° C. in a shaking incubator. At the exception of Enterococcus strains, culture were then diluted 1:10 and allowed to grow for an additional one hour at 35° C. in a shaking incubator. The inocula were prepared by diluting the early log-phase (1 h) cultures 1:1000 with fresh Mueller-Hinton broth. E. faecium and E. faecalis were prepared by diluting overnight cultures 1:333 and 1:666, respectively, with fresh Mueller-Hinton broth. A volume of 50 μL of the inocula was added to each well. […] The exact inocula were determined by applying 10 μL of 10-fold serial dilution of the bacterial suspensions on TSA. After overnight incubation at 35° C., colony forming units were manually counted.
(§4) Microtiter plates were incubated during 24 h at 35° C. and were read using a microtiterplate reader (Molecular Devices) at 650 nm as well as by visual observation using a microtiterplate reading mirror.
For orientation: Broth dilution looks for growth in wells or tubes with falling amounts of substance.

In data set [2] the test system is E. faecium ATCC 35667. The data set is described as follows: Broth microdilution MIC (NCCLS). Type of data set: cell-based. As to conditions: Enterococcus faecium, ATCC35667. As to the method:
as §1, §2, §3, §4

In data set [3] the test system is S. aureus Col (Meth^R)(lac^−). The data set is described as follows: Broth microdilution MIC (NCCLS). Type of data set: cell-based. As to conditions: Staphylococcus aureus. How it is done: as §1, §2, §3, §4
Data set [4] deals with E. faecalis VanB (Van^R). The experiment in a line: Broth microdilution MIC (NCCLS). The following applies: Enterococcus faecalis. The class given is cell-based. As to the method: as §1, §2, §3, §4
In data set [5] the test system is E. faecium A491 (Amp^R). The experiment in a line: Broth microdilution MIC (NCCLS). Type of data set: cell-based. As to conditions: Enterococcus faecium. As to the method: as §1, §2, §3, §4
For data set [6], the system named is S. aureus PC1 (Meth^S)(lac^+). The experiment in a line: Broth microdilution MIC (NCCLS). Type of data set: cell-based. As to conditions: Staphylococcus aureus. As to the method:
as §1, §2, §3, §4

For data set [7], the system named is S. aureus ATCC 13709 (Meth^S). The experiment in a line: Broth microdilution MIC (NCCLS). The following applies: Staphylococcus aureus, ATCC13709, S. aureus ATCC 13709 (Meth^S); read-out: MIC. The class given is cell-based. How it is done: as §1, §2, §3, §4
Data set [8] deals with P. aeruginosa ATCC 27853. The experiment in a line: Broth microdilution MIC (NCCLS). As to conditions: Pseudomonas aeruginosa, ATCC27853. Type of data set: cell-based. As to the method: as §1, §2, §3, §4
Data set [9] relates to S. haemolyticus 05 (Meth^R). The experiment in a line: Broth microdilution MIC (NCCLS). Type of data set: cell-based. The following applies: Staphylococcus haemolyticus. As to the method:
as §1, §2, §3, §4

The subject of data set [10] is S. aureus Spain #356 (Meth^R). The data set is described as follows: Broth microdilution MIC (NCCLS). As to conditions: Staphylococcus aureus, 24 h. The class given is cell-based. How it is done: as §1, §2, §3, §4
Data set [11] deals with S. aureus ATCC 29213. The experiment in a line: Broth microdilution MIC (NCCLS). The class given is cell-based. The following applies: Staphylococcus aureus, ATCC29213; S. aureus ATCC 29213; Mueller-Hinton broth, 24 h at 35° C.; read-out: MIC. How it is done: as §1, §2, §3, §4
For data set [12], the system named is E. coli ATCC25992. The experiment in a line: Broth microdilution MIC (NCCLS). The following applies: Escherichia coli. The class given is cell-based. As to the method:
as §1, §2, §3, §4

The test system of data set [13] is E. faecium VanA (Van^R). The data set is described as follows: Broth microdilution MIC (NCCLS). The class given is cell-based. As to conditions: Enterococcus faecium. As to the method: as §1, §2, §3, §4
For data set [14], the system named is S. aureus 76 (Meth^R)(lac^+). The experiment in a line: Broth microdilution MIC (NCCLS). The class given is cell-based. The following applies: Staphylococcus aureus. As to the method:
as §1, §2, §3, §4

For data set [15], the system named is S. aureus ATCC 33593 (Meth^R). The data set is described as follows: Broth microdilution MIC (NCCLS). As to conditions: Staphylococcus aureus, ATCC33593. Type of data set: cell-based. How it is done:
as §1, §2, §3, §4

The test system of data set [16] is S. aureus ATCC29213. The experiment in a line: Human serum binding effect: MIC with and without human serum. The class given is cell-based, Staphylococcus aureus. As to conditions: 1:1 human serum:MHB. A digest of the protocol: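 Serum binding was estimated as the ratio of S. aureus ATCC29213 MIC in 1:1 human serum:Mueller-Hinton broth to MIC without serum. Compounds were serially 2-fold diluted, and wells received an early-log-phase inoculum at 1×10^6 CFU/mL final. Inoculum size was checked by colony counts on TSA after overnight incubation at 35 °C.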

In data set [17] the test system is E. faecalis ATCC 29212. The experiment in a line: Broth microdilution MIC (NCCLS). As to conditions: Enterococcus faecalis, ATCC29212. Type of data set: cell-based. As to the method: as §1, §2, §3, §4

Values after ≈ are worked out from the molar mass of the structure shown. A value given as a limit tells only on which side of the number the result lay.

As for `NCCSCc1nsc(SC2=C(C(=O)O)N3C(=O)[C@@H](NC(=O)/C(=N\O)c4nc(N)sc4Cl)[C@H]3SC2)n1` [Cmpd 12, (7R)-7-[(Z)-2-(2-amino-5-chlorothiazol-4-yl)-2-(hydroxyimino)acetamido]-3-[3-(2-aminoethylthiomethyl)-1,2,4-thiadiazol-5-ylthio]-3-cephem-4-carboxylic acid], the MIC (as a rule, the least concentration at which growth counts as inhibited) in [1] is 0.5 µg/mL (≈ 0.821 µM); in data set [2], 0.5 µg/mL (≈ 0.821 µM); in data set [3], 1 µg/mL (≈ 1.64 µM); in data set [4], 0.13 µg/mL (≈ 0.213 µM); in [5], 4 µg/mL (≈ 6.57 µM); in [6], 0.13 µg/mL (≈ 0.213 µM). For the same compound, the MIC in [7] was 0.25 µg/mL (≈ 0.41 µM); in [8] it was over 32 µg/mL; in data set [9], 2 µg/mL (≈ 3.28 µM); in data set [10], 1 µg/mL (≈ 1.64 µM); in data set [11] it was 0.5 µg/mL (≈ 0.821 µM); in [12], 4 µg/mL (≈ 6.57 µM). The MIC in [13], in data set [14] and in data set [15] was 1 µg/mL (≈ 1.64 µM) throughout. In [16], the “Human serum binding effect (ratio of MIC value determined with and without human serum added)” value is given as 256.

In the case of `NCCSCc1ccncc1SC1=C(C(=O)O)N2C(=O)[C@@H](NC(=O)/C(=N\O)c3cccc(N)n3)[C@H]2SC1` [Cmpd 28, (7R)-7-[(Z)-2-(2-aminopyrid-6-yl)-2-(hydroxyimino)acetamido]-3-[4-(2-aminoethylthiomethyl)pyrid-3-ylthio]-3-cephem-4-carboxylic acid], the MIC is 0.25 µg/mL (≈ 0.445 µM) in data set [1]; 4 µg/mL (≈ 7.12 µM) in data set [2]; 8 µg/mL (≈ 14.2 µM) in [3]; 2 µg/mL (≈ 3.56 µM) in data set [4]; over 32 µg/mL in data set [5]; 0.5 µg/mL (≈ 0.89 µM) in data set [6]. The MIC in data set [7] is 0.13 µg/mL (≈ 0.231 µM); in [8] it was over 32 µg/mL; in data set [9], 16 µg/mL (≈ 28.5 µM); in [17], 0.5 µg/mL (≈ 0.89 µM); in data set [10], 8 µg/mL (≈ 14.2 µM); in [11], 0.5 µg/mL (≈ 0.89 µM). Also, the MIC in [12] turned out to be 32 µg/mL (≈ 57 µM); in data set [13], 8 µg/mL (≈ 14.2 µM); in [14], 8 µg/mL (≈ 14.2 µM); in data set [15] it was 8 µg/mL (≈ 14.2 µM).

Regarding `NCCNc1nc(CSCCN)c(SC2=C(C(=O)O)N3C(=O)[C@@H](NC(=O)/C(=N\O)c4nc(N)sc4Cl)[C@H]3SC2)s1` [Cmpd 16, (7R)-7-[(Z)-2-(2-amino-5-chlorothiazol-4-yl)-2-(hydroxyimino)acetamido]-3-[4-(2-aminoethylthiomethyl)-2-aminoethylamino-1,3-thiazol-5-ylthio]-3-cephem-4-carboxylic acid], the MIC in data set [1] was determined as 0.25 µg/mL (≈ 0.375 µM); in data set [2], 0.5 µg/mL (≈ 0.75 µM); in data set [3], 1 µg/mL (≈ 1.5 µM); in data set [4] it was 0.06 µg/mL (≈ 0.0901 µM); in data set [5], 16 µg/mL (≈ 24 µM); in data set [6], 0.13 µg/mL (≈ 0.195 µM). The MIC was 0.13 µg/mL (≈ 0.195 µM) in data set [7]; 1 µg/mL (≈ 1.5 µM) in data set [8]; 1 µg/mL (≈ 1.5 µM) in [9]; 0.06 µg/mL (≈ 0.0901 µM) in data set [17]; 1 µg/mL (≈ 1.5 µM) in data set [10]; 0.13 µg/mL (≈ 0.195 µM) in [11]. Moreover, the MIC in data set [12] was determined as 4 µg/mL (≈ 6 µM); in [13] it was 4 µg/mL (≈ 6 µM); in data set [14], 1 µg/mL (≈ 1.5 µM); in data set [15] it was 1 µg/mL (≈ 1.5 µM). For the same compound, the “Human serum binding effect (ratio of MIC value determined with and without human serum added)” value in data set [16] was 1.

On to `NCCSCc1nnc(SC2=C(C(=O)O)N3C(=O)[C@@H](NC(=O)/C(=N\O)c4nc(N)sc4Cl)[C@H]3SC2)s1` [Cmpd 10, (7R)-7-[(Z)-2-(2-amino-5-chlorothiazol-4-yl)-2-(hydroxyimino)acetamido]-3-(2-aminoethylthiomethyl-1,3,4-thiadiazol-5-ylthio)-3-cephem-4-carboxylic acid], for which the MIC in data set [1] was 0.25 µg/mL (≈ 0.41 µM); in data set [2] it was 1 µg/mL (≈ 1.64 µM); in [3], 2 µg/mL (≈ 3.28 µM); in data set [4] it was 0.25 µg/mL (≈ 0.41 µM); in [5], 8 µg/mL (≈ 13.1 µM); in data set [6] it was 0.5 µg/mL (≈ 0.821 µM). In addition, the MIC was 0.13 µg/mL (≈ 0.213 µM) in data set [7]; 16 µg/mL (≈ 26.3 µM) in data set [8]; 4 µg/mL (≈ 6.57 µM) in data set [9]; 0.13 µg/mL (≈ 0.213 µM) in data set [17]; 4 µg/mL (≈ 6.57 µM) in data set [10]; 0.5 µg/mL (≈ 0.821 µM) in data set [11]. Further, the MIC is 1 µg/mL (≈ 1.64 µM) in data set [12], 2 µg/mL (≈ 3.28 µM) in data set [13], 2 µg/mL (≈ 3.28 µM) in [14] and 2 µg/mL (≈ 3.28 µM) in [15]. Further, the “Human serum binding effect (ratio of MIC value determined with and without human serum added)” value in data set [16] is given as 1.
